These results are taken from patent publication US11345659B2, “Pipecolic esters for inhibition of the proteasome” (THE BOARD OF REGENTS OF THE UNIVERSY OF TEXAS SYSTEM, priority 2018, dated 2022).

Test [1] relates to human prostate cancer PC3 cells. The experiment in a line: Efficacy study in nude mice xenografted with PC3 cells. The following applies: 10 mg/kg intra-tumorally. In kind it is in vivo. How it is done:
The efficacy study was performed with mice xenografted with human cultured androgen-resistant prostate cancer PC3 cells. To assure efficient monitoring of tumor growth and dissemination, the cells expressing green fluorescent protein (GFP) and luciferine were used for xenografting (Bioware Brite PC3-RedFLuc-GFP). The study involved […] nude mice. Tumor-growing mice were treated intra-tumorally (IT) with the vehicle (dimethylsulfoxide; DMSO; 8 control mice) or with 10 mg/kg of compound 3 (10 mice). Injections were carried on Mondays, Wednesdays, and Fridays. To assure accurate assessment of the tumor size, at the time of first and last treatments the mice were injected with luciferine (substrate for luciferase) and the total intensity of fluorescent product was recorded by the Xenogen IVIS Spectrum small animal imager. […] The color scale from blue (lowest) through green, yellow and red (highest) corresponds to the intensity of fluorescence emitted from the tumor and thus represents the total mass of live cancer cells. Referring to FIG. 8 right panel, median ratios of last-to-first total tumor fluorescence values are shown. Apparently, the median tumor size in controls increased nearly three-fold (ratio=3.05), whereas in the treated cohort a tumor shrinkage was recorded instead (ratio=0.62).

Test [2] has as its target 20 S proteasome and 19 S regulatory particle (Homo sapiens, UniProt P25787+P25789). As to the kind of experiment: In vitro reconstruction of 26 S: activation of 20 S core by 19 S regulatory particle. In kind it is biochemical. The following applies: pretreatment 10 minutes RT with 1 μM, 2:1 19 S:20 S, with ATP. Here is the method:
The 26 S proteasome can be reconstructed in vitro from the purified core (20 S) and regulatory particle (19 S) protein complexes. Activation of the core is considered a measure of effectiveness of the reconstruction. […] The reconstruction was carried out in the presence of ATP (1 mM ATP, 0.5 mM MgCl2, 0.5 mM dithiothreitol), as required for the optimal conditions of the 20 S-19 S binding. Averages and SD from three independent experiments are presented.

The target in test [3] is T1, 20 S proteasome (Homo sapiens, UniProt P25787+P25789).
T1 construct: purified from erythrocytes; purchased Enzo Life Sciences, Inc. (Farmingdale, N.Y.); host or cells: human erythrocytes
As to the kind of experiment: T-L peptidase activity of tRpt5-activated 20 S core. The format is biochemical. The following applies: core activated with tRpt5.

In test [4] the target is T2, 20 S human housekeeping proteasome (Homo sapiens, UniProt P25787+P25789).
T2 construct: purified from erythrocytes; purchased Enzo Life Sciences, Inc. (Farmingdale, N.Y.); host or cells: human erythrocytes
As to the kind of experiment: ChT-L peptidase activity of 20 S proteasome activated with Rpt5 peptide. The format is biochemical. Here is the method:
Human housekeeping 20 S and 26 S and complexes purified from erythrocytes were purchased from Enzo Life Sciences, Inc. (Farmingdale, N.Y.). The 1 mg/ml stock 20 S proteasome was diluted to 0.2 mg/ml working solution in 50 mM Tris/HCl, pH 8 containing 20% glycerol (dilution buffer). For the 26 S proteasome stock, the dilution buffer was supplemented with 2 mM ATP, 1 mM MgCl2, and 1 mM DTT (dithiothreitol). The ChT-L peptidase activity was measured as arbitrary intensity units of fluorescence emitted by 7-amino-4-methylcoumarin (AMC) released from the canonical model peptide substrate succinyl-LeuLeuValTyr-methylcoumarin (SucLLVY-MCA; Bachem Bioscience Inc., Philadelphia, Pa.), used at concentration of 100 μM. Free AMC (Sigma-Aldrich, St. Louis, Mo.) was used as the standard. The Rpt5 C-terminal peptide was synthesized (standard solid-phase peptide chemistry) and purified to at least 98% purity by GenScript (Piscataway, N.J.). The Rpt5 peptide and the peptide substrate were dissolved in dimethylsulfoxide (DMSO) and such stock solutions were stored at −20° C. The total concentration of DMSO in final reaction mixtures never exceeded 3% (vol/vol).
The reaction was carried out in 96-well plates, in 100 μL of reaction mixture, for 1 hour at 37° C. In the case of 20 S proteasome, the reaction mixture consisted of 45 mM Tris/HCl, pH 8, 100 mM KCl with premixed 10 μM Rpt5 peptide and 100 μM Suc-LLVY-MCA, to which 200 ng (nearly […]) of proteasome and desired concentration of tested compounds in 1 μL of DMSO were added. To test the activity of 26 S proteasome under conditions challenging coordination of the three pairs of peptidase active centers, a mixture of three canonical substrates specific for the ChT-L (SucLLVY-MCA), trypsin-like (T-L; BocLRR-MCA) and caspase-like (Casp-L; Z-LLE-MCA) was used with each of the substrates at 33.3 μM (100 μM of the total substrate concentration). The reaction mixture in this case consisted of 50 mM Tris/HCl, pH 8, 20 mM NaCl, premixed with the substrates and 2 mM ATP, to which 200 ng (nearly 0.1 nmol) of the 26 S working solution and desired concentration of tested compounds in 0.5 μL of DMSO were added. The reaction rates were calculated from a linear segment of kinetic curves constructed from measurements in 1-minutes intervals (Fluoroskan Ascent plate reader; Thermo Fisher Scientific Inc., Waltham, Mass.). Reaction rates were calculated using a linear fit executed by Slope Analyzer and Enzyme Kinetics applications launched within Origin Pro 2017 (OriginLab). Specific activity of the control 20 S proteasome activated with the Rpt5 peptide was in the range of 1.4 to 2.3 nanomoles of AMC product released by 1 mg of 20 S per second (1.95±0.24; n=18). Specific activity of the control 26 S proteasome challenged with three substrates reached on average 0.28±0.06 nanomoles of AMC product released by 1 mg of the enzyme per second (n=6). For comparison, degradation of the canonical Suc-LLVY-MCA substrate by the control 26 S proteasome preceded with a rate in the range of 0.6-0.8 nanomoles of AMC released per mg of the enzyme per second. The data are presented as mean±SD or as a representative set from at least 3 independent experiments.
The compounds were evaluated using the 20 S human housekeeping proteasome. It was activated with the Rpt5 derived 10-residue peptide that contains the C-terminal HbYX (hydrophobic-Tyr-any AA) motif activating the proteasome in trans and to some extend mimic the activation by the 19 S regulatory particle (Osmulski and Gaczynska (2013) Molecular pharmacology 84: 104-113; Smith et al. (2006) J. Struct. Biol. 156: 72-83; Smith et al. (2007) Mol. Cell 27: 731-744). Proteolytic activity was monitored over time using a fluorogenic peptide substrate specific for the chymotrypsin-like active center (ChT-L, Suc-LLVY-AMC) in the presence of a concentration range of the inhibitors. […]

The target in test [5] is T2, 20 S human housekeeping proteasome. The test is described as above. In kind it is biochemical. The following applies: tRpt5 added last (compound 3 before tRpt5), n=3.

Molecules are shown by their SMILES. Read-outs that look alike come from different tables or passages of the source.

As for `COc1cc(CCCOC(=O)[C@@H]2CCCCN2C(=O)OCc2ccccc2)cc(OC)c1OC` [Compound 3, 1-benzyl 2-(3-(3,4,5-trimethoxyphenyl)propyl) (S)-piperidine-1,2-dicarboxylate], the “growth of xenografted tumor” value in test [1] is reported as “attenuated the growth of xenografted tumor”. Moreover, the “median ratio of last-to-first total tumor fluorescence” value in test [1] (Mon/Wed/Fri, control ratio 3.05) turned out to be 0.62. Besides, in test [2], the “activation of 20 S core by 19 S” value is given as “strongly attenuated the activation, by about two-thirds”. The “effect on T-L peptidase” value in test [3] is reported as “not affected”. For the same compound, the IC50 (in general, the point on the concentration scale where inhibition reaches its midpoint) in test [4] (ChT-L, Suc-LLVY-AMC substrate, 20 S activated with Rpt5 peptide, read-out: IC50) is 2000 nM; in test [4] (summary of FIG. 3A and FIG. 3B, read-out: in vitro determined IC50 values for peptidase activities), 2000 to 3000 nM. In addition, the “remaining ChT-L activity” value in test [4] (tRpt5 added first, n=3) was 53%±7%; in test [5], 56%.
